Assays:
human MMP-1 = molecular target: T1, human MMP-1 (Homo sapiens, UniProt P03956); assay: MMP-1 inhibition test; type: biochemical; details: read-out: Inhibitory activity (IC50, nM) MMP-1
T1 construct: purchased Calbiochem 444208
T1 sequence (P03956 100-469): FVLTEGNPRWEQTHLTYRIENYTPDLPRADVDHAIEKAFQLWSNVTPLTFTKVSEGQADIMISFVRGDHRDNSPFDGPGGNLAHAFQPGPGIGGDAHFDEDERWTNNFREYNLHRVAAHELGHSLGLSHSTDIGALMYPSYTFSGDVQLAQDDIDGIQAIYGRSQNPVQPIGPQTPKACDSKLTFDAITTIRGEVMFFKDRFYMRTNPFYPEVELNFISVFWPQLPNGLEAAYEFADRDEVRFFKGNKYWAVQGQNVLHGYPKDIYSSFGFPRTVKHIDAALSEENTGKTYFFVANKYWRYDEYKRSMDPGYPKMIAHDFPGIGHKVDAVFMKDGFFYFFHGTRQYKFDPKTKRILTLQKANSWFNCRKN
Description: (§1) MMP inhibition tests can be carried out, for example, using a fluorescent synthetic substrate based on the methods described in Bickett et al. (D. Mark Bickett et al., Anal. Biochem., 1993, 212, 58-64) and Nagase et al. (H. Nagase et al., J. Biol. Chem., 1994, 269, 20952-20957). The method for each MMP inhibition test is shown below.
180 μL (100 ng) of human MMP-1 (Calbiochem #444208) was mixed with 20 μL of 10 mM p-amino phenyl mercuric acetate (APMA), and activated by reacting at 37° C. for 1 hour. 20 μL of the resultant enzyme solution was diluted to 90 μL with an assay buffer A. The mixture was added to 90 μL of a 20 μM fluorescent substrate (Dnp-Pro-Cha(β-cyclohexylalanyl)-Gly-Cys(Me)-His-Ala-Lys(Nma)-NH2) (SEQ ID NO: 2) prepared with an assay buffer B, and reacted at 37° C. for 5 hours. Enzyme activity was then determined by measuring with a fluorescence intensity meter (Labsystems, Fluoroskan Ascent) at an excitation wavelength of 355 nm and a measurement wavelength of 460 nm.
(§2) From the enzyme activity in the presence or the absence of the test substance, the inhibition rate was determined, and the 50% inhibitiory concentration (IC50) of the test substance was calculated.

human MMP-2 = molecular target: T2, human MMP-2 (Homo sapiens, UniProt P08253); assay: MMP-2 inhibition test; type: biochemical; details: read-out: Inhibitory activity (IC50, nM) MMP-2
T2 construct: purchased Calbiochem 444213
T2 sequence (P08253 110-660): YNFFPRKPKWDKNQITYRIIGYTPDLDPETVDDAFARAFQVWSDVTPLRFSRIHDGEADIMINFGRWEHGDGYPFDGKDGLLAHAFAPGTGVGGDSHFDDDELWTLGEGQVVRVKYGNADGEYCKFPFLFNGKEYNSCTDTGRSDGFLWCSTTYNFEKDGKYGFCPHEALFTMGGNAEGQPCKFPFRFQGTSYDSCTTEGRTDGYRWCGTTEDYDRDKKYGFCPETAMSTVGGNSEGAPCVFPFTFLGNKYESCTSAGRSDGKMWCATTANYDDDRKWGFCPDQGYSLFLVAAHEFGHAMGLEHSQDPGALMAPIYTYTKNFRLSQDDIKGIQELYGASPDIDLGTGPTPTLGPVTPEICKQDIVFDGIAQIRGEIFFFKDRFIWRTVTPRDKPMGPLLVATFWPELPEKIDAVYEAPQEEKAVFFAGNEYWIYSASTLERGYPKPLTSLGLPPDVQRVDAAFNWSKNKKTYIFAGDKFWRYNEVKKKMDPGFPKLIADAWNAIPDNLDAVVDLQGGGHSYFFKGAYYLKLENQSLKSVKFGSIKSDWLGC
Description: as §1
90 μL (5 ng) of human MMP-2 (Calbiochem #444213) was mixed with 10 μL of 10 mM APMA, and activated by reacting at 37° C. for 1 hour. 10 μL of the resultant enzyme solution was diluted to 90 μL with an assay buffer A. The mixture was added to 90 μL of a 20 μM fluorescent substrate (MOCAc((7-methoxycoumarin-4-yl)acetyl)-Pro-Leu-Gly-Leu-A2pr(Dnp)-Ala-Arg-NH2, Peptide Institute Inc., #3163-v) (SEQ ID NO: 3) prepared with an assay buffer B, and reacted at 37° C. for 5 hours. Enzyme activity was then determined by measuring with a fluorescence intensity meter (Labsystems, Fluoroskan Ascent) at an excitation wavelength of 320 nm and a measurement wavelength of 405 nm.
as §2

human MMP-13 = molecular target: T3, human MMP-13 (Homo sapiens, UniProt P45452); assay: MMP-13 inhibition test; type: biochemical; details: read-out: Inhibitory activity (IC50, nM) MMP-13
T3 construct: purchased Calbiochem 444287
Description: as §1
90 μL (130 ng) of human MMP-13 (Calbiochem #444287) was mixed with 10 μL of 10 mM APMA, and activated by reacting at 37° C. for 1 hour. 10 μL of the resultant enzyme solution was diluted to 90 μL with an assay buffer A. The mixture was added to 90 μL of a 20 μM fluorescent substrate (Dnp-Pro-Cha-Gly-Cys(Me)-His-Ala-Lys(Nma)-NH2) (SEQ ID NO: 2) prepared with an assay buffer B, and reacted at 37° C. for 4 hours. Enzyme activity was then determined by measuring with a fluorescence intensity meter (Labsystems, Fluoroskan Ascent) at an excitation wavelength of 355 nm and a measurement wavelength of 460 nm.
as §2

[1] = Solubility test in organic solvents (propylene glycol, butylene glycol); type: physicochemical; details: organic solvent or mixture, thermodynamic from solid
Description: Under room temperature conditions, in a 0.5 mL polypropylene tube, (+)-5-(3,4-difluorophenyl)-5-[(3-methyl-2-oxopyridin-1(2H)-yl)methyl]imidazolidine-2,4-dione and (±)-5-(3,4-difluorophenyl)-5-[(3-methyl-2-oxopyridin-1(2H)-yl)methyl]imidazolidine-2,4-dione measured in advance for a suitable amount were prepared, respectively. In each tube, solvent (Propylene glycol (PG) or butylene glycol (BG)) was added with various amounts, e.g. 10 times, 20 times or 100 times amount of the test compound, and stirred with a vortex mixer. With a table ultrasonic washer set at 37° C., ultrasonication treatment was given for 10 minutes; after warming for an hour in a thermostat chamber, each were kept standing for 24 hours at room temperature. The test solutions were observed by sight to evaluate the states in accordance with the determination criterion given below.
Determination criterion consisted of the following two categories:
“Soluble”: Test compound dissolved; no undissolved substances confirmed by visual observation.
“Insoluble”: Test compound remains undissolved; undissolved substances confirmed by visual observation.

Cc1cccn(CC2(c3ccc(F)c(F)c3)NC(=O)NC2=O)c1=O (single isomer, unassigned; (+)) [(+)-5-(3,4-difluorophenyl)-5-[(3-methyl-2-oxopyridin-1(2H)-yl)methyl]imidazolidine-2,4-dione]
IC50 (human MMP-1): > 10000 nM
IC50 (human MMP-2): > 10000 nM
IC50 (human MMP-13): > 10000 nM
solubility at 24 h [1]: > 10000 µg/mL

— patent US9518041B2, “(+)-5-(3,4-difluorophenyl)-5-[(3-methyl-2-oxopyridin-1(2H)-yl)methyl]imidazolidine-2,4-dione and drug containing same” (KAKEN PHARMACEUTICAL CO., LTD., priority 2013, dated 2016)
